Earlier results, collected in US20100210719A1, “O-DESMETHYLVENLAFAXINE” (DR. REDDY'S LABORATORIES LTD., priority 2007, published 2010).

Settings: inferred from the major DSC endotherm at about 120° C. and Tg onset at 18° C. reported in U.S. Pat. No. 6,673,838

CN(C)CC(c1ccc(O)cc1)C1(O)CCCCC1 (stereo not shown) [desvenlafaxine succinate]
stability of the amorphous form: highly unstable
